The source of these data is paper PMC11024012, “Design, synthesis, and biochemical and computational screening of novel oxindole derivatives as inhibitors of Aurora A kinase and SARS-CoV-2 spike/host ACE2 interaction” (Medicinal Chemistry Research, 2024).

One experiment deals with T1, Aurora A kinase (Homo sapiens, UniProt O14965).
T1 sequence (O14965 1-403): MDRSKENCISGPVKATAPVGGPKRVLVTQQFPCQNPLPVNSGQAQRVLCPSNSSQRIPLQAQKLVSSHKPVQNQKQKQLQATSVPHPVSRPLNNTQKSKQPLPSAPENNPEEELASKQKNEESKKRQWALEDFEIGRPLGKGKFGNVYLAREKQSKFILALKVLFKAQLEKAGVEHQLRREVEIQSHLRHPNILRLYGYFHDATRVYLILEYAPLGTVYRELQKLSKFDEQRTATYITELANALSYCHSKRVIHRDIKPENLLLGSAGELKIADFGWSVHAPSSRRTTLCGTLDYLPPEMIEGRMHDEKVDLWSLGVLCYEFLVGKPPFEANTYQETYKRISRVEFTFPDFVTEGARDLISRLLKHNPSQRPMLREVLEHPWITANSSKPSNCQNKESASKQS
Nature of the experiment: Aurora A kinase inhibition assay (HTRF kinase assay / Z′-LYTE Kinase Assay Kit ser/thr 01 peptide). The settings on record: for inhibition at 32 µM: 32 μM compound, read-out: Aurora A Kinase Percent block at 32 μM; for IC50: ATP 500 μM, Aurora A kinase 2.7–4.7 nM. The format is biochemical. Here is the method:
The activities of the synthesized compounds were evaluated using Invitrogen Z′-LYTE® Kinase Assay Kitser/thr 01 peptide. The bioassay was performed using Aurora A kinase at an optimum concentration of 2.7–4.7 nM and ATP at a concentration of 500 μM. Stock solutions of molecules were prepared at 10 mM in DMSO, and then serially diluted in buffer solution to yield final hit concentrations ranging from 0.01 μM to 100 μM. […] The percentage of inhibition and IC50 value were calculated using nonlinear regression of the log (concentration) vs inhibition percentage values using GraphPad Prism 7.04.
A general note: Time-resolved FRET reads energy transfer from a long-lived donor to a nearby acceptor.

Experiment [1] concerns the target T2, SARS-CoV-2 Spike RBD/ACE2 (Homo sapiens, UniProt Q9BYF1).
T2 construct: 5 nM HIS-tagged SARS-CoV-2 Spike-RBDs; purchased Sino Biological
Nature of the experiment: biochemical. The format is binding, SARS-CoV-2 (Wuhan / USA-WA/2020 wild-type) spike; human ACE2. The settings on record: for inhibition at 32 µM: read-out: Spike RBD/ACE2 Percent block at 32 μM.

Where “and” joins values, the source holds several entries; their conditions need not be identical. Equal values may be shown once. Read-outs that look alike come from different tables or passages of the source.

T2 sequence (Q9BYF1 18-740): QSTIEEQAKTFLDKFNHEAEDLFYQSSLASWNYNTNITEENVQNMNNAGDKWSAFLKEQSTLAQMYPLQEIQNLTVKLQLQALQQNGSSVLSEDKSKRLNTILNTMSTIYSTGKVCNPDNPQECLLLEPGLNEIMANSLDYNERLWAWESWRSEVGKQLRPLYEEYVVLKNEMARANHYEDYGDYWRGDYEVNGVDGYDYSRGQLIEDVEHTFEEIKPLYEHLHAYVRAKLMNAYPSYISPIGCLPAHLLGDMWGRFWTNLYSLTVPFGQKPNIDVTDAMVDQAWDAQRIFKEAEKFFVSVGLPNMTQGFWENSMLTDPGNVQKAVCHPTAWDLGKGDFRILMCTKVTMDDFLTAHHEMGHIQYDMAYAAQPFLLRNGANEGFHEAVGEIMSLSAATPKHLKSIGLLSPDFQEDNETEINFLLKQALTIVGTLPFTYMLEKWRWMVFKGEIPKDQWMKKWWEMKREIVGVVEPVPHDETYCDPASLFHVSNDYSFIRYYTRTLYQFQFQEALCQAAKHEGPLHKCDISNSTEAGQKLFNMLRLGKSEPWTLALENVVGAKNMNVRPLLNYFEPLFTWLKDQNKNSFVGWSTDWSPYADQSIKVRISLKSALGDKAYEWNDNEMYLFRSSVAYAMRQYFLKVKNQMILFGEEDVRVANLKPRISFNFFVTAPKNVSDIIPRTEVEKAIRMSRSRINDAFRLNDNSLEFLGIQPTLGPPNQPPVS

Regarding `O=C(Cc1ccc(Cl)cc1)Nc1ccc2c(c1)/C(=N\Nc1ccc(C(F)(F)F)cc1)C(=O)N2` [Compound 6f, (E)-2-(4-chlorophenyl)-N-(2-oxo-3-(2-(4(trifluoromethyl)phenyl)hydrazineylidene)indolin-5-yl)acetamide], the inhibition at 32 µM amounted to 87.8 ± 2.9% at Aurora A kinase and 27.1 ± 3.9% in experiment [1]. This compound also came in with an IC50 against Aurora A kinase of 1.8 ± 0.2 µM.

Consider `O=C(CCN1CCOCC1)Nc1ccc2c(c1)/C(=N\Nc1ccc(Cl)cc1Cl)C(=O)N2` [Compound 6h, (E)-N-(3-(2-(2,4-dichlorophenyl)hydrazineylidene)-2-oxoindolin-5-yl)-3-morpholinopropanamide], for which the figures for the inhibition at 32 µM (at Aurora A kinase; in experiment [1]) were 10.3 ± 7.1% and 21.3 ± 5.6%, respectively.

As to `CC1(C)COC2(OC1)C(=O)Nc1ccc(NC(=O)CCN3CCOCC3)cc12` [Compound 4c, N-(5’,5’-dimethyl-2-oxospiro[indoline-3,2’-[1,3]dioxan]-5-yl)-3-morpholinopropanamide], the figures for the inhibition at 32 µM (on Aurora A kinase; in experiment [1]) were 1.6 ± 2.1% and 2 ± 2.9%, respectively.

In the case of Hopeaphenol [reference compound], in experiment [1], the “Spike RBD/ACE2 Percent block at 32 μM” value was 83.6 ± 2.0%. Further, the IC50 in experiment [1] (read-out: Spike RBD/ACE2 IC50) was 0.3 ± 0.1 µM.

On to `CC1(C)COC2(OC1)C(=O)Nc1ccc(NC(=O)c3ccc(Cl)cc3)cc12` [Compound 4d, 4-chloro-N-(5’,5’-dimethyl-2-oxospiro[indoline-3,2’-[1,3]dioxan]-5-yl)benzamide], for which the inhibition at 32 µM at Aurora A kinase came to 17.8 ± 9.2%; in experiment [1], 22.5 ± 5.7%.

Take `CC(=O)Nc1ccc2c(c1)/C(=N\Nc1ccc(C)cc1)C(=O)N2` [Compound 6a, (E)-N-(2-oxo-3-(2-(p-tolyl)hydrazineylidene)indolin-5-yl)acetamide]: on Aurora A kinase, the inhibition at 32 µM stood at 82.7 ± 2.7% and the IC50 stood at 0.8 ± 0.1 µM. For the same compound, in experiment [1], the inhibition at 32 µM worked out at 21.5 ± 4.8%.

As to `O=C1Nc2ccc(NC(=O)c3ccc(Cl)cc3)cc2/C1=N\Nc1ccc(C(F)(F)F)cc1` [Compound 6l, (E)-4-chloro-N-(2-oxo-3-(2-(4(trifluoromethyl)phenyl)hydrazineylidene)indolin-5-yl)benzamide], the values for the inhibition at 32 µM (on Aurora A kinase; in experiment [1]) were 19.4 ± 13.5% and 44.2 ± 9%, respectively.

As for `O=C1Nc2ccc(NC(=O)c3ccc(Cl)cc3)cc2/C1=N\Nc1ccncc1` [Compound 6m, (E)-4-chloro-N-(2-oxo-3-(2-(pyridine-4-yl)hydrazineylidene)indolin-5-yl)benzamide], on Aurora A kinase, the inhibition at 32 µM was 80.2 ± 1.2% and the IC50 was found to be 3.1 ± 1.3 µM. Besides, in experiment [1], the inhibition at 32 µM is 0%.

`CCS(=O)(=O)Nc1ccc2c(c1)/C(=C(/Nc1ccc(CN3CCCCC3)cc1)c1ccccc1)C(=O)N2` [Hesperadin, reference compound]: on Aurora A kinase, the inhibition at 32 µM was 93.8 ± 0.8% and the IC50 came out at 0.0053 ± 0.0027 µM. Also, the inhibition at 32 µM in experiment [1] came out at 43.3 ± 10.6%.

For `O=C1Nc2ccc(NC(=O)c3ccc(Cl)cc3)cc2/C1=N\Nc1ccc(Cl)cc1Cl` [Compound 6k, (E)-4-chloro-N-(3-(2-(2,4-dichlorophenyl)hydrazineylidene)-2-oxoindolin-5-yl)benzamide], the inhibition at 32 µM was 13.4 ± 14.6% at Aurora A kinase and 34.4 ± 20.4% in experiment [1].

For `Cc1ccc(N/N=C2/C(=O)Nc3ccc(NC(=O)c4ccc(Cl)cc4)cc32)cc1` [Compound 6j, (E)-4-chloro-N-(2-oxo-3-(2-(p-tolyl)hydrazineylidene)indolin-5-yl)benzamide], the inhibition at 32 µM at Aurora A kinase amounted to 13.2 ± 8.2%; in experiment [1], 2.8 ± 4%.

Regarding `CC(=O)Nc1ccc2c(c1)/C(=N\Nc1ccncc1)C(=O)N2` [Compound 6c, (E)-N-(2-oxo-3-(2-(pyridine-4-yl)hydrazineylidene)indolin-5-yl)acetamide], at Aurora A kinase, the inhibition at 32 µM is 58.1 ± 1.7% and the IC50 came to 5.5 ± 0.5 µM. In addition, in experiment [1], the inhibition at 32 µM was 5.2 ± 4.1%.

On to `Cc1ccc(N/N=C2/C(=O)Nc3ccc(NC(=O)Cc4ccc(Cl)cc4)cc32)cc1` [Compound 6d, (E)-2-(4-chlorophenyl)-N-(2-oxo-3-(2-(p-tolyl)hydrazineylidene)indolin-5-yl)acetamide], for which the inhibition at 32 µM on Aurora A kinase stood at 54.2 ± 6.7%; in experiment [1], 3.2 ± 0.4%. The compound further had an IC50 at Aurora A kinase of 22.8 ± 7.9 µM.

For `O=C(Cc1ccc(Cl)cc1)Nc1ccc2c(c1)/C(=N\Nc1ccc(Cl)cc1Cl)C(=O)N2` [Compound 6e, (E)-2-(4-chlorophenyl)-N-(3-(2-(2,4-dichlorophenyl)hydrazineylidene)-2-oxoindolin-5-yl)acetamide], the inhibition at 32 µM is 10 ± 4.9% on Aurora A kinase and 10.4 ± 12.1% in experiment [1].

With `CC1(C)COC2(OC1)C(=O)Nc1ccc(NC(=O)Cc3ccc(Cl)cc3)cc12` [Compound 4b, 2-(4-chlorophenyl)-N-(5’,5’-dimethyl-2-oxospiro[indoline-3,2’-[1,3]dioxan]-5-yl)acetamide], the inhibition at 32 µM stood at 20.9 ± 6.3% at Aurora A kinase and 20.1 ± 11.5% in experiment [1].

Regarding `CC(=O)Nc1ccc2c(c1)C1(OCC(C)(C)CO1)C(=O)N2` [Compound 4a, N-(5’,5’-dimethyl-2-oxospiro[indoline-3,2’-[1,3]dioxan]-5-yl)acetamide], the figures for the inhibition at 32 µM (on Aurora A kinase; in experiment [1]) were 9.1 ± 6.5% and 0%, respectively.

For `CC(=O)Nc1ccc2c(c1)/C(=N\Nc1ccc(Cl)cc1Cl)C(=O)N2` [Compound 6b, (E)-N-(3-(2-(2,4-dichlorophenyl)hydrazineylidene)-2-oxoindolin-5-yl)acetamide], the inhibition at 32 µM at Aurora A kinase was 26.4 ± 0.6%; in experiment [1], 21.5 ± 6.2%.

Take `O=C(CCN1CCOCC1)Nc1ccc2c(c1)/C(=N\Nc1ccc(C(F)(F)F)cc1)C(=O)N2` [Compound 6i, (E)-3-morpholino-N-(2-oxo-3-(2-(4(trifluoromethyl)phenyl)hydrazineylidene)indolin-5-yl)propanamide]: the values for the inhibition at 32 µM (on Aurora A kinase; in experiment [1]) were 79.3 ± 1.5% and 64.5 ± 9%, respectively. Besides, the IC50 on Aurora A kinase was 4.8 ± 0.3 µM; in experiment [1] (Spike RBD/ACE2 IC50), 12.1 ± 2.9 µM; in experiment [1] (read-out: Spike RBD/ACE2 IC50), < 30 µM and 22.4 µM.
